Measured values published in patent US20010011081A1, “Pharmaceutical composition comprising L- carnitine or alkanoyl L-carnitine for the prevention and treatment of diseases brought about by lipid metabolism disorders” (Sigma-Tau Industrie Parmaceutiche Riunite S.p.A., priority 1995, published 2001).
“Also recorded” adds a separate entry of the source.

Columns and labels:
[1] = system: experimentally obese rats; assay: Tests in experimentally obese rats on a lipogenic diet for fifteen days (food consumption, body weight, serum triglycerides, epididymal fat); assay type: in vivo, Wistar rats; conditions: for MEAN DAILY FOOD CONSUMPTION (g) PER ANIMAL After 15 days / MEAN DAILY FOOD CONSUMPTION (g) PER ANIMAL Before treatment / Final body weight increase (g) AFTER 15 DAY-TREATMENT / SERUM Triglycerides AFTER 15 DAY-TREATMENT / Epididimal fat AFTER 15 DAY-TREATMENT: lipogenic diet
Procedure: Male Wistar rats aged about 2 months were fed on a lipogenic diet (50% glucose, 20% casein, 4% cellulose, 5% salt mixture, 1% hazel nut oil, 18% starch, 1% vitamin mixture).
This diet was administered for fifteen days consecutively to different groups of rats, one of which served as a control group, whereas in the other groups the diet was administered together with calcium hydroxycitrate (1%-2%) or Garcinia cambogia extract (2%-4%) or L-carnitine (2%-4%) or acetyl L-carnitine or propionyl L-carnitine at the same doses, or together with various combinations of these products at the same doses. At the end of the fifteenth day of treatment, food consumption was evaluated in treated rats vs. controls and increases in body weight and in serum triglycerides and epididymal fat were measured.

[2] = system: fructose-induced hypertriglyceridaemia; assay: Experimental hypertriglyceridaemia test (oral fructose); assay type: in vivo, Wistar rats; conditions: for EXPERIMENTALLY-INDUCED HYPERTRIGYCERIDAEMIA (serum triglycerides): 5 days before and two hours after 3 g fructose
Procedure: In these tests, male Wistar rats serum triglyceride elevation was induced experimentally by means of the oral administration of fructose according to the method disclosed by L. A. V. Carlson (J. Atheroscler. Res. 8, 667, 1968; Atherosclerosis 16, 349, 1972). In the 5-day period prior to administration of 3 g of fructose, the rats, divided into groups, were treated with L-carnitine or its derivatives or with calcium hydroxycitrate or Garcinia cambogia extract at different doses, or with various combinations of these products.
The administration of these products was then repeated two hours after administration of fructose, and 5 hours later all animals were sacrificed. Triglyceride assay was then performed according to the method of R. K. Donabedian (Clin. Chem 20, 632, 1974).

[3] = system: Wistar rats with hypercholesterolaemia induced by diet; assay: Experimental hypercholesterolaemia test (diet-induced, six weeks); assay type: in vivo; conditions: serum
Procedure: The results of tests conducted in Wistar rats with hypercholesterolaemia induced by diet according to the method described by C. […] Treatment both with L-carnitine and with calcium hydroxycitrate or with Garcinia cambogia extract, or with a combination of these products, was initiated together with a hypercholesterolaemia-inducing diet and continued for six weeks consecutively. At the end of this period, the assay was performed on the serum of the control animals and on that of the treated animals according to the method described by P. Roschlan (Clin. Chem. Clin. Biochem. 12, 403, 1975).

[4] = system: atherosclerotic vascular lesions; assay: Experimental atherosclerosis test (atherogenic diet for six weeks); assay type: in vivo, Wistar rats
Text: Also in atherosclerotic vascular lesions induced experimenatlly according to the method of M. R. Malinow (Atherosclerosis 48, 105, 1983), with administration of an atherogenic diet (24% casein, 10% cotton oil, 5% salt, 60% sugar, 1% cholesterol, Vit D2 200 mUST/g of diet) for six weeks consecutively to different groups of male Wistar rats, it has been shown that the combination of carnitines plus calcium hydroxycitrate or Garcinia cambogia extract is capable of substantially potentiating the anti-atherogenic effect.
This was assessed by measuring the thickness of the abdominal aorta and the intensity of staining induced by Sudan IV using a scoring system from 1 to 5, according to degree of severity.

[5] = fifteen days of treatment on a lipogenic diet
[6] = g 1/100 g diet, listed as calcium hydroxycitrate
[7] = g 2/100 g diet, listed as calcium hydroxycitrate

Compound	MEAN DAILY FOOD CONSUMPTION (g) PER ANIMAL After 15 days ([1]; g 2/100 g diet) [g]	MEAN DAILY FOOD CONSUMPTION (g) PER ANIMAL After 15 days ([1]; g 4/100 g diet) [g]	MEAN DAILY FOOD CONSUMPTION (g) PER ANIMAL Before treatment ([1]; g 2/100 g diet) [g]	MEAN DAILY FOOD CONSUMPTION (g) PER ANIMAL Before treatment ([1]; g 4/100 g diet) [g]	change in daily food consumption (in words) [1, 5]	Final body weight increase (g) AFTER 15 DAY-TREATMENT ([1]; g 2/100 g diet) [g]	SERUM Triglycerides AFTER 15 DAY-TREATMENT ([1]; g 2/100 g diet) [mg/100 ml]	Final body weight increase (g) AFTER 15 DAY-TREATMENT ([1]; g 4/100 g diet) [g]	SERUM Triglycerides AFTER 15 DAY-TREATMENT ([1]; g 4/100 g diet) [mg/100 ml]	EXPERIMENTALLY-INDUCED HYPERTRIGYCERIDAEMIA (serum triglycerides) ([2]; g 0.5/Kg) [mg/100 ml]	EXPERIMENTALLY-INDUCED HYPERTRIGYCERIDAEMIA (serum triglycerides) ([2]; g 1/Kg) [mg/100 ml]	EXPERIMENTALLY-INDUCED HYPERCHOLESTEROLEMIA, TOTAL CHOLESTEROL ([3]; g 2/100 g diet) [mg/dL]	EXPERIMENTALLY-INDUCED HYPERCHOLESTEROLEMIA, TOTAL CHOLESTEROL ([3]; g 4/100 g diet) [mg/dL]	severity of atherosclerotic lesions / anti-atherogenic effect (abdominal aorta thickness, Sudan IV staining score 1 to 5) [4]	other results
CC(=O)O[C@H](CC(=O)[O-])C[N+](C)(C)C [Acetyl L-carnitine]	18.4 ± 0.44	18.8 ± 0.57	18.6 ± 0.39	18.2 ± 0.41	No changes compared to controls; also recorded: non-significant changes	60.4 ± 7.1	95.81 ± 8.2	60.1 ± 6.1	90.8 ± 7.5	191.2 ± 9.1	188.4 ± 5.5	266.7 ± 7.7	255.4 ± 9.4	–	–
C[N+](C)(C)C[C@H](O)CC(=O)[O-] [L-carnitine]	–	17.8 ± 0.41	17.3 ± 0.35	18.4 ± 0.61	No changes compared to controls; also recorded: non-significant changes	66.2 ± 4.9	92.55 ± 7.7	64.5 ± 5.1	90.44 ± 6.8	190.4 ± 9.6	190.8 ± 8.6	270.4 ± 5.1	260.6 ± 4.4	capable of reducing the severity of the atherosclerotic lesions	–
CCC(=O)O[C@H](CC(=O)[O-])C[N+](C)(C)C [Propionyl L-carnitine]	17.1 ± 0.38	18.5 ± 0.48	17.7 ± 0.56	18.2 ± 0.44	No changes compared to controls; also recorded: non-significant changes	62.4 ± 3.9	88.4 ± 8.16	58.7 ± 3.7	82.7 ± 6.6	184.2 ± 6.8	180.4 ± 7.9	250.6 ± 10.1	235.3 ± 9.6	–	Epididimal fat AFTER 15 DAY-TREATMENT ([1]; g 4/100 g diet): 4.0 ± 5.6 g
Calcium hydroxycitrate	15.1 ± 0.46	–	18.8 ± 0.44	–	substantial reduction	38.9 ± 3.8	73.66 ± 7.1	–	–	170.6 ± 8.5	145.5 ± 8.5	180.5 ± 8.1	–	capable of reducing the severity of the atherosclerotic lesions	MEAN DAILY FOOD CONSUMPTION (g) PER ANIMAL After 15 days ([1]; g 1/100 g diet): 17.1 ± 0.35 g; MEAN DAILY FOOD CONSUMPTION (g) PER ANIMAL After 15 days [1, 6]: 17.1 g; MEAN DAILY FOOD CONSUMPTION (g) PER ANIMAL After 15 days [1, 7]: 15.1 g; MEAN DAILY FOOD CONSUMPTION (g) PER ANIMAL Before treatment ([1]; g 1/100 g diet): 19.2 ± 0.65 g; MEAN DAILY FOOD CONSUMPTION (g) PER ANIMAL Before treatment [1, 6]: 19.2 g; MEAN DAILY FOOD CONSUMPTION (g) PER ANIMAL Before treatment [1, 7]: 18.8 g; body weight gain (in words) [1, 5]: reduced; Epididimal fat AFTER 15 DAY-TREATMENT ([1]; g 1/100 g diet): 3.91 ± 0.36 g; Final body weight increase (g) AFTER 15 DAY-TREATMENT ([1]; g 1/100 g diet): 46.6 ± 4.1 g; SERUM Triglycerides AFTER 15 DAY-TREATMENT ([1]; g 1/100 g diet): 76.84 ± 6.9 mg/100 ml; Epididimal fat AFTER 15 DAY-TREATMENT ([1]; g 2/100 g diet): 3.32 ± 0.39 g; fructose-induced hypertriglyceridaemia (in words) ([2]; rat, in vivo): reduced; EXPERIMENTALLY-INDUCED HYPERCHOLESTEROLEMIA, TOTAL CHOLESTEROL ([3]; g 1/100 g diet): 196.6 ± 9.6 mg/dL; total cholesterol values (in words) [3]: fair degree of lowering
